Experimental data published in US10842779B2, “Heterocyclic compounds and their use in preventing or treating bacterial infections” (priority 2015, dated 2020).
Read-outs that look alike come from different tables or passages of the source.

Key:
KPC-2 = target: T1, KPC-2 (Klebsiella pneumoniae, UniProt Q9F663); test: β-Lactamase inhibitory activity, nitrocefin hydrolysis; format: biochemical; settings: class (A); 30 min pre-incubation
T1 construct: made in house; host or cells: E. coli

P. mirabilis = test: Synergy with ceftazidime: MIC of ceftazidime at fixed concentration of compound; format: cell-based; settings: Proteus mirabilis; PMI UFR82; beta-lactamases CMY-2; read-out: MIC of CAZ + compound (4 μg/mL)
Procedure: (§1) Method 2: MIC of Compounds and Synergy with Ceftazidime Against Bacterial Isolates (Table 2 and 3)
(§2) Compounds of the present invention were assessed against genotyped bacterial strains alone or in combination with the β-lactam ceftazidime. In the assays, MICs of said compounds, or of ceftazidime at fixed concentrations of said compounds were determined by the broth microdilution method according to the Clinical Laboratory Standards Institute (CLSI—M7-A7). Briefly, compounds alone according to the invention were prepared in DMSO and spotted (2 μL each) on sterile polystyrene plates (Corning, 3788). Compounds and ceftazidime dilutions were prepared in DMSO and spotted (1 μL each) on sterile polystyrene plates (Corning, 3788). Log phase bacterial suspensions were adjusted to a final density of 5×10^5 cfu/mL in cation-adjusted Mueller-Hinton broth (Beckton-Dickinson) and added to each well (98 μL). Microplates were incubated for 16-20 h at 35° C. in ambient air. The MIC of the compounds was defined as the lowest concentration of said compounds that prevented bacterial growth as read by visual inspection. The MIC of ceftazidime at each compound concentration was defined as the lowest concentration of ceftazidime that prevented bacterial growth as read by visual inspection.

K. pneumoniae = test: as above; format: cell-based; settings: Klebsiella pneumoniae
Procedure: as §1, §2

M. morganii = test: as above; format: cell-based; settings: Morganella morganii, read-out: MIC of CAZ + compound (4 μg/mL)
Procedure: as §1, §2

C. freundii = test: as above; format: cell-based; settings: Citrobacter freundii; CFR UFR10; beta-lactamases OXA-48; read-out: MIC of CAZ + compound (4 μg/mL)
Procedure: as §1, §2

E. aerogenes = test: as above; format: cell-based; settings: Klebsiella aerogenes; EAE 200261; beta-lactamases TEM-x AmpC; read-out: MIC of CAZ + compound (4 μg/mL)
Procedure: as §1, §2

P. aeruginosa = test: as above; format: cell-based; settings: Pseudomonas aeruginosa, read-out: MIC of CAZ + compound (4 μg/mL)
Procedure: as §1, §2

K. oxytoca = test: as above; format: cell-based; settings: Klebsiella oxytoca, read-out: MIC of CAZ + compound (4 μg/mL)
Procedure: as §1, §2

S. marcescens = test: as above; format: cell-based; settings: Serratia marcescens; SMA UFR30; beta-lactamases OXA-405; read-out: MIC of CAZ + compound (4 μg/mL)
Procedure: as §1, §2

C. murliniae = test: as above; format: cell-based; settings: CMU 210102; beta-lactamases VIM-4; read-out: MIC of CAZ + compound (4 μg/mL)
Procedure: as §1, §2

TEM-1 = target: T2, TEM-1 (Escherichia coli, UniProt P62593); test: β-Lactamase inhibitory activity, nitrocefin hydrolysis; format: biochemical; settings: class (A); 30 min pre-incubation
T2 construct: made in house; host or cells: E. coli

AmpC (PAE) = AmpC (PAE) (Pseudomonas aeruginosa, UniProt P24735); test: biochemical
Procedure: (§3) Method 1: β-Lactamase Inhibitory Activity, Determination of IC50 (Table 1)
(§4) Enzyme activity was monitored by spectrophotometric measurement of nitrocefin (NCF-TOKU-E, N005) hydrolysis at 485 nm, at room temperature and in assay buffer A: 100 mM Phosphate pH7, 2% glycerol and 0.1 mg/mL Bovine serum albumin (Sigma, B4287). Enzymes were cloned in E. coli expression vector, expressed and purified in house using classical procedures. To a transparent polystyrene plate (Corning, 3628) were added in each well 5 μL DMSO or inhibitor dilutions in DMSO and 80 μL enzyme in buffer A. Plates were immediately read at 485 nm in a microplate spectrophotometer (BioTek, PowerWave HT) to enable background subtraction. After 30 min of pre-incubation at room temperature, 15 μL of NCF (200 μM final) were finally added in each well. Final enzyme concentrations were 0.1 nM (TEM-1), 0.075 nM (SHV-1), 0.4 nM (CTX-M-15), 1 nM (KPC-2), 0.2 nM (P99 AmpC), 0.2 nM (CMY-37), 0.4 nM (AmpC P. aeruginosa), 0.2 nM (OXA-1), 1.2 nM (OXA-11), 0.4 nM (OXA-15) and 0.3 nM (OXA-48). After 20 min incubation at room temperature, plates were once again read at 485 nm. Enzyme activity was obtained by subtracting the final signal by the background, and was converted to enzyme inhibition using non inhibited wells. IC50 curves were fitted to a classical Langmuir equilibrium model with Hill slope using XLFIT (IDBS).

AmpC (P99) = AmpC (P99) (Enterobacter cloacae, UniProt P05364); test: biochemical
Procedure: as §3, §4

OXA-11 = target: T3, OXA-11 (Pseudomonas aeruginosa, UniProt Q06778); test: β-Lactamase inhibitory activity, nitrocefin hydrolysis; format: biochemical
T3 construct: made in house; host or cells: E. coli

OXA-48 = target: T4, OXA-48 (Klebsiella pneumoniae, UniProt Q6XEC0); test: as above; format: biochemical; settings: class (D); 30 min pre-incubation
T4 construct: made in house; host or cells: E. coli

OXA-15 = target: T5, OXA-15 (Pseudomonas aeruginosa, UniProt Q51574); test: as above; format: biochemical
T5 construct: made in house; host or cells: E. coli

OXA-1 = target: T6, OXA-1 (Escherichia coli, UniProt P13661); test: as above; format: biochemical; settings: class (D); 30 min pre-incubation
T6 construct: made in house; host or cells: E. coli

[1] = target: CMY-37 (Citrobacter freundii); test: as above; format: biochemical
SHV-1 = target: T7, SHV-1 (Klebsiella pneumoniae, UniProt P0AD64); test: as above; format: biochemical
T7 construct: made in house; host or cells: E. coli

O=C(O)C(F)(F)F.O=C1N2C[C@H](c3scnc3[C@H]2c2ncc[nH]2)N1OS(=O)(=O)[O-].[Na+] (relative stereo) [Example 1, Sodium and 2,2,2-trifluoroacetate [trans-7-(1H-imidazol-3-ium-2-yl)-9-oxo-3-thia-5,8,10-triaza-tricyclo[6.2.1.0^2,6]undeca-2(6),4-dien-10-yl]sulfate]
IC50 (KPC-2): 4.2 nM | MIC (P. mirabilis): ≤ 0.25 µg/mL | MIC (K. pneumoniae; BAA1898, read-out: MIC of CAZ + compound (4 μg/mL), KPN BAA-1898, beta-lactamases TEM-1, SHV-11, SHV-12 KPC-2): 0.5 µg/mL | MIC (K. pneumoniae; KPN 700603, beta-lactamases SHV-18 OXA-2, read-out: MIC of CAZ + compound (4 μg/mL)): < 0.25 µg/mL | MIC (K. pneumoniae; KPN LIB, beta-lactamases SHV-11 OXA-48, read-out: MIC of CAZ + compound (4 μg/mL)): < 0.25 µg/mL | MIC (K. pneumoniae; KPN UFR42, beta-lactamases SHV-2, CTX-M-15 OXA-1 OXA-181 NDM-1, read-out: MIC of CAZ + compound (4 μg/mL)): < 0.25 µg/mL | MIC (K. pneumoniae; KPN UFR43, beta-lactamases SHV-11, CTX-M-15 CMY-2 OXA-1 NDM-1, read-out: MIC of CAZ + compound (4 μg/mL)): ≤ 0.25 µg/mL | MIC (K. pneumoniae; KPN UFR77, beta-lactamases CMY-2, read-out: MIC of CAZ + compound (4 μg/mL)): < 0.25 µg/mL | MIC (K. pneumoniae; KPN UFR79, beta-lactamases DHA-1 OXA-1, read-out: MIC of CAZ + compound (4 μg/mL)): < 0.25 µg/mL | MIC (K. pneumoniae; KPN UFR80, beta-lactamases SHV-11 DHA-1 OXA-1, read-out: MIC of CAZ + compound (4 μg/mL)): < 0.25 µg/mL | MIC (K. pneumoniae; read-out: MIC of CAZ + compound (4 μg/mL), KPN 6299, beta-lactamases TEM-1, SHV-11 OXA-163): ≤ 0.125 µg/mL | MIC (K. pneumoniae; read-out: MIC of CAZ + compound (4 μg/mL), KPN 260252, beta-lactamases TEM-1, SHV-11 KPC-3): > 128 µg/mL | MIC (M. morganii): ≤ 0.25 µg/mL | MIC (C. freundii): < 0.25 µg/mL | MIC (E. aerogenes): < 0.25 µg/mL | MIC (P. aeruginosa; PAE CIP107051, beta-lactamases TEM-24): 8 µg/mL | MIC (P. aeruginosa; PAE MUS, beta-lactamases OXA-20 OXA-18): 8 µg/mL | MIC (K. oxytoca): < 0.25 µg/mL | MIC (S. marcescens): < 0.25 µg/mL | MIC (C. murliniae): < 0.25 µg/mL | IC50 (TEM-1): 12 nM | IC50 (AmpC (PAE)): 17 nM | IC50 (AmpC (P99)): 0.37 nM | IC50 (OXA-11): 410 nM | IC50 (OXA-48): 8.4 nM | IC50 (OXA-15): 270 nM | IC50 (OXA-1): 190 nM | IC50 [1]: 0.63 nM | IC50 (SHV-1): 5.5 nM
